System: CD86 mRNA expression in MV4-11 cells
Experiment: CD86 mRNA expression assay (qPCR assay) in MV4-11 cells
Format: cell-based
Settings: Homo sapiens, 24 hours treatment, CD86 mRNA normalized against ACTB, read-out: CD86 induction qPCR in MV4-11 AC50
Protocol: MV4-11 cells were treated with representative compound of the present invention and RNA was extracted, followed by reverse transcription and Real-Time PCR. […] The data were used for dose response curve fitting in GraphPad Prism to calculate the AC50 of each compound. AC50 of CD86 mRNA expression activation after treatment of representative compounds of present invention will reflect the inhibition of LSD1 activity.

SMILES	AC50 [nM]
Cc1cc2c(cc1C#N)c(-c1cncc(N)c1Cl)cn2-c1ccc(=O)n(C)c1 [Example 84, 3-(5-amino-4-chloropyridin-3-yl)-6-methyl-1-(1-methyl-6-oxo-1,6-dihydropyridin-3-yl)-1H-indole-5-carbonitrile]	1490
Cc1cc2c(cc1C#N)c(-c1cncc(N)c1F)cn2[C@H]1CC[C@H](O)CC1 [Example 5, 3-(5-amino-4-fluoropyridin-3-yl)-1-((1R,4R)-4-hydroxycyclohexyl)-6-methyl-1H-indole-5-carbonitrile]	3620
Cc1cc2c(cc1C#N)c(-c1cncc(N)c1Cl)cn2[C@H]1CC[C@H](O)CC1 [Example 1, 3-(5-amino-4-chloropyridin-3-yl)-1-((1R,4R)-4-hydroxycyclohexyl)-6-methyl-1H-indole-5-carbonitrile]	98
Cc1cc2c(cc1C#N)c(-c1cncc(N)c1Cl)cn2C1CCC(C(N)=O)C1 (stereo not shown) [Example 68, 3(3-(5-amino-4-chloropyridin-3-yl)-5-cyano-6-methyl-1H-indol-1-yl)cyclopentane-1-carboxamide]	464
N#Cc1cc2c(-c3cncc(N)c3Cl)cn([C@H]3CC[C@H](O)CC3)c2cc1Cl [Example 7, 3-(5-amino-4-chloropyridin-3-yl)-6-chloro-1-((1R,4R)-4-hydroxycyclohexyl)-1H-indole-5-carbonitrile]	569
Cc1cc2c(cc1C#N)c(-c1cncc(N)c1Cl)cn2-c1ccc(S(C)(=O)=O)cc1 [Example 77, 3-(5-amino-4-chloropyridin-3-yl)-6-methyl-1-(4-(methylsulfonyl)phenyl)-1H-indole-5-carbonitrile]	7
Cc1cc2c(cc1C#N)c(-c1cncc(N)c1Cl)cn2[C@H]1CC[C@H](S(C)(=O)=O)CC1 [Example 47, 3-(5-amino-4-chloropyridin-3-yl)-6-methyl-1-((1R,4R)-4-(methylsulfonyl)cyclohexyl)-1H-indole-5-carbonitrile]	202

— US10604502B2, “Substituted 5-cyanoindole compounds and uses thereof” (Novartis AG, priority 2017, dated 2020)
